Entries after “also recorded” stand apart in the source; their conditions may differ.
Assays:
[1] = system: KPC mice; assay: KPC mice, PanIN progression and cancer formation after intravenous treatment; type: in vivo
Procedure: FIGS. 13A-13D are graphs showing that (11R)-71-85 inhibits PanIN and cancer formation in KPC mice. (FIG. 13A) KPC mice were sub-lethally irradiated at 6 weeks of age and packed with 10×10^6 hematopoietic bone marrow cells and the survival was monitored (n=5 per group; *p<0.05, Log-rank test). (FIG. 13B) Quantification of normal ducts and PanIN of KPC mice treated as in (A) (n=6 per group). (FIG. 13C) CD4^+ T cells infiltrated in the pancreas were analyzed for TNFα and IFNγ expression by flow cytometry after treatment with (11R) 71-85 or (11R) Scr. Bar graphs show the average percentage of indicated cytokine secreting cells. (n=8 per group; *p<0.05, NS=not significant, unpaired two-tailed Student's t-test). (FIG. 13D) KPC mice were treated as in (A) and the expression of different tumor promoting factors was analyzed in isolated pancreatic epithelial cells by quantitative real-time PCR (n=6 per group).
KPC mice provide a genetic model of murine pancreatic tumors that closely mimics the human disease. KPC (KrasG12D/^+; LSLTrp53R172H/^+; Pdx-1-Cre) mice express K-ras in pancreatic epithelium, and when made heterozygous for p53, develop spontaneous tumors starting at approximately 8-10 weeks of age (Hingorani et al., Cancer Cell 7(5):469-483, 2005). This involves the formation of pancreatic intraepithelial neoplasia precursor lesions (PanIN) and progression to fully-developed carcinoma with surrounding stromal and inflammatory reactions (Hingorani et al., Cancer Cell 7(5):469-483, 2005).
Given these findings, further experiments were conducted to determine if inhibition of the alternative pathway in KPC mice would alter disease progression. KPC mice were treated with intravenous (11R)-71-85 or (11R)-Scrambled starting at 9 weeks of age, and the pancreas was histologically evaluated 3.5 weeks later. Thirty-three percent (2 of 6) of mice treated with (11R)-Scrambled developed invasive carcinoma in the pancreas. […] In line with the reduced TNFα secretion, Irf4 mRNA expression was decreased in CD4^+ TILs after (11R)-71-85 treatment. […] The fact that early stage PanIN formation was present, but later pre-invasive stages were reduced, in (11R)-71-85-treated mice supports a role for T cell-derived TNFα in the progression of PanIN towards invasive carcinoma.

[2] = system: PANC02 tumors; assay: PANC02 model, tumor vascularization (CD31 staining); type: in vivo; conditions: 80 μg intra-tumor every other day for 2.5 weeks; compared with control treated mice
Procedure: FIG. 11 is a pair of images showing that intra-tumor injection of (11R)-71-85 reduces tumor vascularization. WT C57BL/6 mice were injected with 7.5×10^5 PANC02 cells and 16 days later were injected with 80 μg of either (11R)-71-85 or (11R)-Scrambled. Mice received intra-tumor injections every other day for 2.5 weeks. Twenty-four hours after the last injection, tumors were collected, fixed in formalin, and stained for the endothelial marker CD31, an indicator of tumor vascularization.
Tumor vascularization was also assessed in WT mice treated with (11R)-71-85. WT C57BL/6 mice were injected with 7.5×10^5 PANC02 cells. After 16 days, mice received intra-tumor injections of 80 μg of (11R)-71-85 or (11R)-Scrambled every other day for 2.5 weeks. Twenty-four hours after the last injection, tumors were collected, fixed in formalin, and stained for the endothelial marker CD31, an indicator for tumor vascularization.

[3] = system: Naïve CD4+ T cells; assay: Th1 differentiation of naïve CD4+ T cells; type: cell-based; conditions: 2 μM; Th0 or Th1 polarizing conditions 3 days; relative to medium or (11R)-Ctrl
Procedure: FIGS. 5A-5D are a series of flow cytometry plots showing (11R)-71-85 inhibits Th1 differentiation. Naïve CD4^+ T cells were treated with either 2 μM of (11R)-71-85 or (11R)-Ctrl for two hours and after washing, cells were stimulated with anti-CD3 plus anti-CD28 in Th0 (neutral, FIG. 5A and FIG. 5C) or Th1 polarizing conditions (FIG. 5B and FIG. 5D) for 3 days. Cells were treated again with the same concentration of either medium (first column), (11R)-Ctrl (second column), or (11R)-71-85 (third column) for 2 hours and restimulated with PMA plus ionomycin in the presence of Golgi inhibitor for 4 hours. Expression of T bet and interferon (IFN)-γ (indicators of Th1 cells typical of a pro-inflammatory response) was analyzed by flow cytometry.
Additional studies were carried out to evaluate the effect of (11R)-71-85 on T helper (Th) cell differentiation. Expression of IFN-γ and T-bet was used as an indicator of Th1 cells typical of a pro-inflammatory response. Naïve CD4^+ T cells were treated with either medium or 2 μM of (11R)-71-85 or (11R)-Ctrl for two hours and after washing, cells were stimulated with anti-CD3 plus anti-CD28 in Th0 (neutral) or Th1 polarizing conditions for 3 days. […] Expression of T bet and IFNγ was analyzed by flow cytometry (FIGS. 5A-5D).

[4] = system: Irf4 mRNA; assay: Irf4 mRNA in splenocytes after intraperitoneal injection; type: in vivo, mice; conditions: 40 μg intraperitoneally; splenocytes 4 hours after injection, anti-CD3 plus anti-CD28 24 hours; versus vehicle control
Procedure: FIG. 7 is a graph showing expression of interferon regulatory factor 4 (Irf4) mRNA following in vivo treatment with (11R)-71-85. (11R)-71-85 (40 μg) or vehicle control was injected intraperitoneally into wild type mice. Four hours after injection, splenocytes were collected and stimulated with soluble anti-CD3 plus anti-CD28 for 24 hours. Irf4 mRNA expression was assessed by quantitative real time PCR.
(11R)-71-85 (40 μg) or vehicle control was injected intraperitoneally into wild type mice. Four hours after injection, splenocytes were collected and stimulated with soluble anti-CD3 plus anti-CD28 for 24 hours. Irf4 mRNA expression was assessed by quantitative real time PCR.

[5] = intravenous, compared to control

(11R)-71-85: fusion protein: 11 arginine residues added to the N-terminus of the Gadd45α 71-85 peptide (LQIHFTLIQAFCCEN; N-terminal 11 arginine; UniProt P24522 71-85, looked up, fragment)
Irf4 mRNA expression in CD4+ TILs ([1]; intravenous): decreased
progression towards high grade PanIN formation (PanIN3, carcinoma in situ) ([1]; intravenous from 9 weeks of age, 3.5 weeks): slowed
mice that developed invasive carcinoma in the pancreas ([1]; intravenous from 9 weeks of age, histology 3.5 weeks later): no mice
intrapancreatic fibro-inflammatory reaction (H&E) ([1]; intravenous, compared to (11R)-Scrambled): reduced
CD4+ tumor infiltrating lymphocytes expressing TNFα [1, 5]: reduced numbers
expression of IFNγ in CD4+ tumor infiltrating lymphocytes [1, 5]: slightly reduced
expression of Cc12 in pancreatic epithelial cells ([1]; quantitative real-time PCR): reduced
expression of Cc15 in pancreatic epithelial cells ([1]; quantitative real-time PCR): reduced
expression of Tgfβ in pancreatic epithelial cells ([1]; quantitative real-time PCR): reduced
expression of Vegf in pancreatic epithelial cells ([1]; quantitative real-time PCR): reduced
CD31 staining (tumor vascularization) [2]: significant reduction
expression of IFN-γ [3]: reduced expression; also recorded: blunted
expression of T-bet [3]: reduced expression; also recorded: blunted
Irf4 mRNA expression [4]: significantly inhibited

— patent US9359418B2, “Inhibitors of the T cell-specific alternative p38 activation pathway and methods of use” (The United States of America, as represented by the …, priority 2012, dated 2016)
